In publication PMC9614482, “The superior salinity tolerance of bread wheat cultivar Shanrong No. 3 is unlikely to be caused by elevated Ta-sro1 poly-(ADP-ribose) polymerase activity” (The Plant Cell, 2022):
One block for each molecule: values may come before it.

Experiments:
HsPARP1 (full-length) = target: T1, HsPARP1 (full-length) (Homo sapiens, UniProt P09874); type: biochemical; details: histones as substrates
T1 construct: gene PARP1; full-length protein supplied in the PARP Universal Colorimetric Assay Kit (Trevigen)

[1] = target: T2, HsPARP1 catalytic domain (PARP domain) (Homo sapiens, UniProt P09874, L713F); experiment: differential scanning fluorimetry; type: binding; details: 6(5H)-phenanthridinone concentrations above 2 µM
T2 construct: gene PARP1; recombinant, made in the authors' laboratory; only the L713F variant tested

AtPARP2 = target: T3, AtPARP2 (Arabidopsis thaliana, UniProt Q11207); experiment: immunoprecipitated GFP fusion, pan-ADP-ribose immunoblot; type: biochemical; details: 300 µM β-NAD+ in extraction buffer; auto-ADP-ribosylation, PAR chain formation
T3 construct: gene PARP2; GFP fusion, transiently expressed in Nicotiana benthamiana, immunoprecipitated with GFP-nanobody
T3 sequence (Q11207 whole entry, the tested form may be a part): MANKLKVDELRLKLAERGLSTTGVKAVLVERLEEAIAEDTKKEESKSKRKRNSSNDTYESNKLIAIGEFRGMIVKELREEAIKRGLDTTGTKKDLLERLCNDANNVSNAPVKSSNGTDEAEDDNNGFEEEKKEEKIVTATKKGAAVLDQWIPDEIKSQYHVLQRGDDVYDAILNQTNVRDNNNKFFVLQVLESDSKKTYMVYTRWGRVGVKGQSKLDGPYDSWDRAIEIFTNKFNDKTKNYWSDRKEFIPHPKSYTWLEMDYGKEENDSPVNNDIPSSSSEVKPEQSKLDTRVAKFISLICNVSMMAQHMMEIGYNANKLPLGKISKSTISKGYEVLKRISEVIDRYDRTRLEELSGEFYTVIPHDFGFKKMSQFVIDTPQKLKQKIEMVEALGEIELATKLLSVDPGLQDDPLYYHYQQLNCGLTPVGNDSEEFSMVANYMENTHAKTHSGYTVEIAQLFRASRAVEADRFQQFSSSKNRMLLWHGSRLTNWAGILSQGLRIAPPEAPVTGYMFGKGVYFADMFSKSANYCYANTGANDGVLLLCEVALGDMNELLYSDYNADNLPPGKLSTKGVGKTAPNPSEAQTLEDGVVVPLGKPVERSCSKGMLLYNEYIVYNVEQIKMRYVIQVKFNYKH

T1 sequence (P09874 2-1014): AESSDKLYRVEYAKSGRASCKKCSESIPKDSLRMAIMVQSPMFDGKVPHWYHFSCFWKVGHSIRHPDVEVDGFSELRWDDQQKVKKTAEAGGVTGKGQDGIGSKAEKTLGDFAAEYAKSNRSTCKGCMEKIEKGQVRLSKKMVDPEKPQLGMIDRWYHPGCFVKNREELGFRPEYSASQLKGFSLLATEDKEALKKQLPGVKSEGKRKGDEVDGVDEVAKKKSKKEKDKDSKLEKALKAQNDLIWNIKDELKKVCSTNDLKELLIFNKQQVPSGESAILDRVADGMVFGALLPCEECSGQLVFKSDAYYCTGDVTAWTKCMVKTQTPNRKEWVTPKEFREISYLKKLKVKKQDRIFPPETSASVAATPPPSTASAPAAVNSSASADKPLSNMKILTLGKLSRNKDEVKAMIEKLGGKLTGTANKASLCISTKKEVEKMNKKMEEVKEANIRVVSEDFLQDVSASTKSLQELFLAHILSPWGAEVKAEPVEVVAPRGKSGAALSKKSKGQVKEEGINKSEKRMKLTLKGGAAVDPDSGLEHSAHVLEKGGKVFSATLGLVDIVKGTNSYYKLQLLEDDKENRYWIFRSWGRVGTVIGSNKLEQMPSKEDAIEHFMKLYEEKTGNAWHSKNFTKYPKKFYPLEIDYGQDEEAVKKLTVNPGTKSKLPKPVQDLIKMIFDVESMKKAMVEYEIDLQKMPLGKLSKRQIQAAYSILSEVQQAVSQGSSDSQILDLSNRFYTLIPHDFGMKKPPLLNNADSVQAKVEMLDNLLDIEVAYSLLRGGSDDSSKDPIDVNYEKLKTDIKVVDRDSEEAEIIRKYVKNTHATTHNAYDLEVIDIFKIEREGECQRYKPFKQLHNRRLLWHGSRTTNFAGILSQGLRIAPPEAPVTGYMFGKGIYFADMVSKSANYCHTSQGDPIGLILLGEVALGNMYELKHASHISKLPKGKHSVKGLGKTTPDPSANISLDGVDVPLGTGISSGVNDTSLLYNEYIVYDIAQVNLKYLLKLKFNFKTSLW
T2 sequence (P09874 662-1014 L713F limits assumed): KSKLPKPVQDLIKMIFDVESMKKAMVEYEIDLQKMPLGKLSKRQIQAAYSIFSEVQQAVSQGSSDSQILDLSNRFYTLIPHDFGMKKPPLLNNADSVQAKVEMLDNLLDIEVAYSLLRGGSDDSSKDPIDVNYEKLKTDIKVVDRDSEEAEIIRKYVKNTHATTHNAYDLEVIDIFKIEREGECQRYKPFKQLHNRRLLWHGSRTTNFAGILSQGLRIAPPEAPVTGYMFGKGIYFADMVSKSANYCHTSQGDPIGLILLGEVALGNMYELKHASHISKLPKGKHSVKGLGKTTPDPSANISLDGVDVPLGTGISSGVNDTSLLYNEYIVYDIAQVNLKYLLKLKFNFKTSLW

SMILES: NC(=O)c1cccc(N)c1 [3-aminobenzamide]
colorimetric PARP assay kit, ADP-ribosylation of histones (HsPARP1 (full-length)): 3-aminobenzamide (3AB) inhibited ADP-ribosylation of histones by HsPARP1

dTm [1]: ~ +4 °C
SMILES: O=c1[nH]c2ccccc2c2ccccc12 [6(5H)-phenanthridinone]

SMILES: NC(=O)c1ccc[n+]([C@@H]2O[C@H](COP(=O)(O)OP(=O)(O)OC[C@H]3O[C@@H](n4cnc5c(N)ncnc54)[C@H](O)[C@@H]3O)[C@@H](O)[C@H]2O)c1 [NAD+]
immunoprecipitated GFP fusion, pan-ADP-ribose immunoblot (AtPARP2): canonical Arabidopsis PARP2 enzyme formed PAR chains in a NAD^+-dependent manner
